Experimental data as given in US12404262B2 (priority 2021, dated 2025).
Converted amounts (≈) assume the structure as drawn.

How the values were obtained:
[1] = Solubility in simulated intestinal fluids (FaSSIF/FeSSIF); details: 25 °C, thermodynamic from solid
[2] = 1.0% DMSO, 24-hour incubation at ambient temperature, maximum theoretical 100 μM; for pH 2 solubility: 0.1N HCl, first value of the cell; for pH 7 solubility: 1×PBS buffer (pH 7.4), second value of the cell
[3] = fasted state simulated intestinal fluid (FaSSIF), fassif
[4] = fed state simulated intestinal fluid (FeSSIF), fessif

SMILES | solubility [1, 3] | solubility [1, 4] | pH 2 solubility [2] | pH 7 solubility [2]
CC(C)(C#Cc1ccc(-c2ccc(Cl)c3c(N(C(=O)OC[C@H](CC(=O)O)NC(=O)C(=O)O)S(C)(=O)=O)nn(CC(F)(F)F)c23)c([C@H](Cc2cc(F)cc(F)c2)NC(=O)Cn2nc(C(F)(F)F)c3c2C(F)(F)[C@@H]2C[C@H]32)n1)S(C)(=O)=O [Compound 131] | 816 µg/mL (≈ 688 µM) | 427 µg/mL (≈ 360 µM) | 1 μM | 73 μM
CC(C)(C#Cc1ccc(-c2ccc(Cl)c3c(N(C(=O)N[C@](C)(CO)CC(=O)O)S(C)(=O)=O)nn(CC(F)(F)F)c23)c([C@H](Cc2cc(F)cc(F)c2)NC(=O)Cn2nc(C(F)(F)F)c3c2C(F)(F)[C@@H]2C[C@H]32)n1)S(C)(=O)=O [Compound 66, (S)-3-(3-(4-chloro-7-(2-((S)-1-(2-((3bS,4aR)-5,5-difluoro-3-(trifluoromethyl)-3b,4,4a,5-tetrahydro-1H-cyclopropa[3,4]cyclopenta[1,2-c]pyrazol-1-yl)acetamido)-2-(3,5-difluorophenyl)ethyl)-6-(3-methyl-3-(methylsulfonyl)but-1-yn-1-yl)pyridin-3-yl)-1-(2,2,2-trifluoroethyl)-1H-indazol-3-yl)-3-(methylsulfonyl)ureido)-4-hydroxy-3-methylbutanoic acid] | 425 µg/mL (≈ 377 µM) | 140 µg/mL (≈ 124 µM) | 1 μM | 10 μM
CN(CC(=O)O)C(=O)N(c1nn(CC(F)(F)F)c2c(-c3ccc(C#CC(C)(C)S(C)(=O)=O)nc3[C@H](Cc3cc(F)cc(F)c3)NC(=O)Cn3nc(C(F)(F)F)c4c3C(F)(F)[C@@H]3C[C@H]43)ccc(Cl)c12)S(C)(=O)=O [Compound 44, N-((4-chloro-7-(2-((S)-1-(2-((3bS,4aR)-5,5-difluoro-3-(trifluoromethyl)-3b,4,4a,5-tetrahydro-1H-cyclopropa[3,4]cyclopenta[1,2-c]pyrazol-1-yl)acetamido)-2-(3,5-difluorophenyl)ethyl)-6-(3-methyl-3-(methylsulfonyl)but-1-yn-1-yl)pyridin-3-yl)-1-(2,2,2-trifluoroethyl)-1H-indazol-3-yl)(methylsulfonyl)carbamoyl)-N-methylglycine] | 10 µg/mL (≈ 9.23 µM) | 10 µg/mL (≈ 9.23 µM) | 1 μM | 9 μM
CN(CCCC(=O)O)C(=O)N(c1nn(CC(F)(F)F)c2c(-c3ccc(C#CC(C)(C)S(C)(=O)=O)nc3[C@H](Cc3cc(F)cc(F)c3)NC(=O)Cn3nc(C(F)(F)F)c4c3C(F)(F)[C@@H]3C[C@H]43)ccc(Cl)c12)S(C)(=O)=O [Compound 46, 4-(3-(4-chloro-7-(2-((S)-1-(2-((3bS,4aR)-5,5-difluoro-3-(trifluoromethyl)-3b,4,4a,5-tetrahydro-1H-cyclopropa[3,4]cyclopenta[1,2-c]pyrazol-1-yl)acetamido)-2-(3,5-difluorophenyl)ethyl)-6-(3-methyl-3-(methylsulfonyl)but-1-yn-1-yl)pyridin-3-yl)-1-(2,2,2-trifluoroethyl)-1H-indazol-3-yl)-1-methyl-3-(methylsulfonyl)ureido)butanoic acid] | 9 µg/mL (≈ 8.1 µM) | 3 µg/mL (≈ 2.7 µM) | 1 μM | 10 μM
CN(C(=O)N(c1nn(CC(F)(F)F)c2c(-c3ccc(C#CC(C)(C)S(C)(=O)=O)nc3[C@H](Cc3cc(F)cc(F)c3)NC(=O)Cn3nc(C(F)(F)F)c4c3C(F)(F)[C@@H]3C[C@H]43)ccc(Cl)c12)S(C)(=O)=O)[C@@H](CC(=O)O)C(=O)OCOP(=O)(O)O [Compound 88, (S)-3-(3-(4-chloro-7-(2-((S)-1-(2-((3bS,4aR)-5,5-difluoro-3-(trifluoromethyl)-3b,4,4a,5-tetrahydro-1H-cyclopropa[3,4]cyclopenta[1,2-c]pyrazol-1-yl)acetamido)-2-(3,5-difluorophenyl)ethyl)-6-(3-methyl-3-(methylsulfonyl)but-1-yn-1-yl)pyridin-3-yl)-1-(2,2,2-trifluoroethyl)-1H-indazol-3-yl)-1-methyl-3-(methylsulfonyl)ureido)-4-oxo-4-((phosphonooxy)methoxy)butanoic acid] | 841 µg/mL (≈ 672 µM) | 589 µg/mL (≈ 471 µM) | 1 μM | 15 μM
CC(C)(C#Cc1ccc(-c2ccc(Cl)c3c(N(C(=O)NCCNC(=N)N)S(C)(=O)=O)nn(CC(F)(F)F)c23)c([C@H](Cc2cc(F)cc(F)c2)NC(=O)Cn2nc(C(F)(F)F)c3c2C(F)(F)[C@@H]2C[C@H]32)n1)S(C)(=O)=O [Compound 76] | 7 µg/mL (≈ 6.38 µM) | 68 µg/mL (≈ 62 µM) | – | –
CC(C)(C#Cc1ccc(-c2ccc(Cl)c3c(N(C(=O)OCCCS(=O)(=O)O)S(C)(=O)=O)nn(CC(F)(F)F)c23)c([C@H](Cc2cc(F)cc(F)c2)NC(=O)Cn2nc(C(F)(F)F)c3c2C(F)(F)[C@@H]2C[C@H]32)n1)S(C)(=O)=O [Compound 111, 3-(((4-chloro-7-(2-((S)-1-(2-((3bS,4aR)-5,5-difluoro-3-(trifluoromethyl)-3b,4,4a,5-tetrahydro-1H-cyclopropa[3,4]cyclopenta[1,2-c]pyrazol-1-yl)acetamido)-2-(3,5-difluorophenyl)ethyl)-6-(3-methyl-3-(methylsulfonyl)but-1-yn-1-yl)pyridin-3-yl)-1-(2,2,2-trifluoroethyl)-1H-indazol-3-yl)(methylsulfonyl)carbamoyl)oxy)propane-1-sulfonic acid] | – | – | 33 μM | 42 μM
CC(C)(C#Cc1ccc(-c2ccc(Cl)c3c(N(C(=O)OCCCN)S(C)(=O)=O)nn(CC(F)(F)F)c23)c([C@H](Cc2cc(F)cc(F)c2)NC(=O)Cn2nc(C(F)(F)F)c3c2C(F)(F)[C@@H]2C[C@H]32)n1)S(C)(=O)=O [Compound 129, 3-aminopropyl (4-chloro-7-(2-((S)-1-(2-((3bS,4aR)-5,5-difluoro-3-(trifluoromethyl)-3b,4,4a,5-tetrahydro-1H-cyclopropa[3,4]cyclopenta[1,2-c]pyrazol-1-yl)acetamido)-2-(3,5-difluorophenyl)ethyl)-6-(3-methyl-3-(methylsulfonyl)but-1-yn-1-yl)pyridin-3-yl)-1-(2,2,2-trifluoroethyl)-1H-indazol-3-yl)(methylsulfonyl)carbamate] | – | – | 54 μM | 7 μM

More lines, now with the values ahead:

solubility [1, 3] | solubility [1, 4] | pH 2 solubility [2] | pH 7 solubility [2] | SMILES
6 µg/mL (≈ 5.69 µM) | 120 µg/mL (≈ 114 µM) | 54 μM | 4 μM | CC(C)(C#Cc1ccc(-c2ccc(Cl)c3c(N(COC(=O)CN)S(C)(=O)=O)nn(CC(F)(F)F)c23)c([C@H](Cc2cc(F)cc(F)c2)NC(=O)Cn2nc(C(F)(F)F)c3c2C(F)(F)[C@@H]2C[C@H]32)n1)S(C)(=O)=O [Compound 29, (N-(4-chloro-7-(2-((S)-1-(2-((3bS,4aR)-5,5-difluoro-3-(trifluoromethyl)-3b,4,4a,5-tetrahydro-1H-cyclopropa[3,4]cyclopenta[1,2-c]pyrazol-1-yl)acetamido)-2-(3,5-difluorophenyl)ethyl)-6-(3-methyl-3-(methylsulfonyl)but-1-yn-1-yl)pyridin-3-yl)-1-(2,2,2-trifluoroethyl)-1H-indazol-3-yl)methylsulfonamido)methyl glycinate]
2 µg/mL (≈ 1.78 µM) | 3 µg/mL (≈ 2.67 µM) | 1 μM | 48 μM | CC(C)(C#Cc1ccc(-c2ccc(Cl)c3c(N(C(=O)OCOP(=O)(O)O)S(C)(=O)=O)nn(CC(F)(F)F)c23)c([C@H](Cc2cc(F)cc(F)c2)NC(=O)Cn2nc(C(F)(F)F)c3c2C(F)(F)[C@@H]2C[C@H]32)n1)S(C)(=O)=O [Compound 90, (phosphonooxy)methyl (4-chloro-7-(2-((S)-1-(2-((3bS,4aR)-5,5-difluoro-3-(trifluoromethyl)-3b,4,4a,5-tetrahydro-1H-cyclopropa[3,4]cyclopenta[1,2-c]pyrazol-1-yl)acetamido)-2-(3,5-difluorophenyl)ethyl)-6-(3-methyl-3-(methylsulfonyl)but-1-yn-1-yl)pyridin-3-yl)-1-(2,2,2-trifluoroethyl)-1H-indazol-3-yl)(methylsulfonyl)carbamate]
21 µg/mL (≈ 18.4 µM) | 218 µg/mL (≈ 191 µM) | 1 μM | 5 μM | CC(C)(C#Cc1ccc(-c2ccc(Cl)c3c(N(C(=O)OCCC(C(=O)O)C(=O)O)S(C)(=O)=O)nn(CC(F)(F)F)c23)c([C@H](Cc2cc(F)cc(F)c2)NC(=O)Cn2nc(C(F)(F)F)c3c2C(F)(F)[C@@H]2C[C@H]32)n1)S(C)(=O)=O [Compound 126, 2-(2-(((4-chloro-7-(2-((S)-1-(2-((3bS,4aR)-5,5-difluoro-3-(trifluoromethyl)-3b,4,4a,5-tetrahydro-1H-cyclopropa[3,4]cyclopenta[1,2-c]pyrazol-1-yl)acetamido)-2-(3,5-difluorophenyl)ethyl)-6-(3-methyl-3-(methylsulfonyl)but-1-yn-1-yl)pyridin-3-yl)-1-(2,2,2-trifluoroethyl)-1H-indazol-3-yl)(methylsulfonyl)carbamoyl)oxy)ethyl)malonic acid]
– | – | 4 μM | 100 μM | CC(C)(C#Cc1ccc(-c2ccc(Cl)c3c(N(C(=O)OCCOCCOP(=O)(O)O)S(C)(=O)=O)nn(CC(F)(F)F)c23)c([C@H](Cc2cc(F)cc(F)c2)NC(=O)Cn2nc(C(F)(F)F)c3c2C(F)(F)[C@@H]2C[C@H]32)n1)S(C)(=O)=O [Compound 106, 2-(2-(phosphonooxy)ethoxy)ethyl (4-chloro-7-(2-((S)-1-(2-((3bS,4aR)-5,5-difluoro-3-(trifluoromethyl)-3b,4,4a,5-tetrahydro-1H-cyclopropa[3,4]cyclopenta[1,2-c]pyrazol-1-yl)acetamido)-2-(3,5-difluorophenyl)ethyl)-6-(3-methyl-3-(methylsulfonyl)but-1-yn-1-yl)pyridin-3-yl)-1-(2,2,2-trifluoroethyl)-1H-indazol-3-yl)(methylsulfonyl)carbamate]
